Where two headings read alike, the source gives them in different places.
Experiments:
washed human platelets [1] = test: U46619-induced platelet aggregation; type: cell-based; conditions: Platelet; washed human platelets, U46619 (1 μM)
Summary of the method: (§1)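 Washed platelets from ACD-anticoagulated blood of healthy donors, stirred at 1200 rpm, 37 °C in a turbidimetric aggregometer. Aggregation triggered by U46619 or collagen, scored as maximal rise in light transmission.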

washed human platelets [2] = test: Collagen-induced platelet aggregation; type: cell-based; conditions: Platelet; washed human platelets, collagen (5 μg/mL)
Summary of the method: as §1

ERp57 (PDIA3) = target: T1, ERp57 (PDIA3) (Homo sapiens, UniProt P30101); test: ERp57 reductase assay (Di-E-GSSG); type: biochemical
T1 sequence (P30101 25-505): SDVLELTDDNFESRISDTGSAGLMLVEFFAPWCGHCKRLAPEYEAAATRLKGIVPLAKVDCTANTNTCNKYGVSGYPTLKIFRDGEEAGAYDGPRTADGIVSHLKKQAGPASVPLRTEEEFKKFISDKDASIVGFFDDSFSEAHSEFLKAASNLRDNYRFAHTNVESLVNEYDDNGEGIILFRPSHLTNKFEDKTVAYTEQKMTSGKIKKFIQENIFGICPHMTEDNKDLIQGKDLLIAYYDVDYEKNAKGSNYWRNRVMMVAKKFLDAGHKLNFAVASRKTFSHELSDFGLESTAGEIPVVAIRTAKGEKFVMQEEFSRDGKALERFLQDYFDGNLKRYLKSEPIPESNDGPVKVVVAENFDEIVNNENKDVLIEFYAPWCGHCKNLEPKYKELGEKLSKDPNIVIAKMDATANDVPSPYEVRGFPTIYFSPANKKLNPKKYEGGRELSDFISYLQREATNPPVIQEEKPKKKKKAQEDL
Text: (§2) In addition to PDI, ERp57 (PDIA3) and ERp72 (PDIA4) are two other major members of the PDI family in both platelets and A549 cells.[62],[63]

ERp72 (PDIA4) = target: T2, ERp72 (PDIA4) (Homo sapiens, UniProt P13667); test: ERp72 reductase assay (Di-E-GSSG); type: biochemical; conditions: human recombinant
T2 sequence (P13667 21-645): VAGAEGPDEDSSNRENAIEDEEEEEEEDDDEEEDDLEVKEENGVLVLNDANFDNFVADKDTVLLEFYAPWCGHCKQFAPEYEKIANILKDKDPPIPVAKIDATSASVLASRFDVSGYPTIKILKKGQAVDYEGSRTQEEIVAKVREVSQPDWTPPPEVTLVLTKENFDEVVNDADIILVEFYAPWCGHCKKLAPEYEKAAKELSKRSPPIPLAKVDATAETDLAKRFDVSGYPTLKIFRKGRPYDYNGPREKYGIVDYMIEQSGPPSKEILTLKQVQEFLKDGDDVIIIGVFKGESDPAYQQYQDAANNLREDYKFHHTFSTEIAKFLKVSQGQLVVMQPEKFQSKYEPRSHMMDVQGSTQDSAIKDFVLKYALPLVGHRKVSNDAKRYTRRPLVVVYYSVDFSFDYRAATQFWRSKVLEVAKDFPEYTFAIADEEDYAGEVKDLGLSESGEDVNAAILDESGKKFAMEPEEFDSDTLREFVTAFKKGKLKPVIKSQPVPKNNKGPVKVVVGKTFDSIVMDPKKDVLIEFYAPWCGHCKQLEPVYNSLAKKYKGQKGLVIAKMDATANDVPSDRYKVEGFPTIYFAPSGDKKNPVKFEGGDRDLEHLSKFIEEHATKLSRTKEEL
Text: as §2

[3] = tested on: washed human platelets coincubated with A549, MDA-MB-231, or RPMI8226 cancer cells; test: Tumor cell-induced platelet aggregation (TCIPA); type: cell-based; conditions: 2 μM; A549, MDA-MB-231, RPMI8226 cells, in the presence of plasma
[4] = tested on: washed human platelets coincubated with A549 cancer cells; test: Tumor cell-induced platelet secretion (PDGF, ATP); type: cell-based
Method: (a) Washed human platelets were coincubated with A549 cancer cells under the same conditions as described in Figure 4. Secretion of PDGF and ATP were determined with the enzyme-linked immunosorbent assay (ELISA) and bioluminescent assay, respectively. (b) A549 cancer cells were coincubated with washed human platelets at 37 °C and 5% CO2 in a cell culture incubator for 48 h. After washing with PBS, the numbers of viable cancer cells were determined by trypan blue exclusion. Data are mean ± SEM of at least three independent experiments.
Washed human platelets were coincubated with cancer cells under the same conditions as described in the TCIPA assay. After a 25 min incubation in the aggregometer, the samples were centrifuged at 13,000g for 1 min. The concentrations of PDGF-BB and ATP in the supernatants were determined using an ELISA kit (Abcam, Cambridge, UK) and an ATP bioluminescent assay kit (Sigma, MO, USA), respectively.[52]

glioma U87 = test: Cell viability, resazurin assay, U87; conditions: Homo sapiens, 24 h, read-out: U87 IC50
Method: (§3) Cells were maintained in a humidified incubator at 37 °C in 5% CO2, and cell viability was determined with the resazurin assay (Cayman Chemical, USA) after the incubation with compounds for indicated concentrations and times or DMSO as control.[72]

lung cancer A549 = test: Cell viability, resazurin assay, A549; conditions: Homo sapiens, A549, 24 h, read-out: A549 IC50
Method: as §3

[5] = tested on: multiple myeloma RPMI8226; test: Cell viability, resazurin assay, RPMI8226; conditions: for IC50: Homo sapiens
Method: as §3

breast cancer MDA-MB-231 = test: Cell viability, resazurin assay, MDA-MB-231; conditions: Homo sapiens, MDA-MB-231, 24 h, read-out: MDA-MB-231 IC50
Method: as §3

[6] = target: purified human recombinant PDI (rPDI) (Homo sapiens, UniProt P07237); test: Recombinant PDI reductase activity (Di-E-GSSG assay)
purified human recombinant PDI (rPDI), sequence (P07237 18-508): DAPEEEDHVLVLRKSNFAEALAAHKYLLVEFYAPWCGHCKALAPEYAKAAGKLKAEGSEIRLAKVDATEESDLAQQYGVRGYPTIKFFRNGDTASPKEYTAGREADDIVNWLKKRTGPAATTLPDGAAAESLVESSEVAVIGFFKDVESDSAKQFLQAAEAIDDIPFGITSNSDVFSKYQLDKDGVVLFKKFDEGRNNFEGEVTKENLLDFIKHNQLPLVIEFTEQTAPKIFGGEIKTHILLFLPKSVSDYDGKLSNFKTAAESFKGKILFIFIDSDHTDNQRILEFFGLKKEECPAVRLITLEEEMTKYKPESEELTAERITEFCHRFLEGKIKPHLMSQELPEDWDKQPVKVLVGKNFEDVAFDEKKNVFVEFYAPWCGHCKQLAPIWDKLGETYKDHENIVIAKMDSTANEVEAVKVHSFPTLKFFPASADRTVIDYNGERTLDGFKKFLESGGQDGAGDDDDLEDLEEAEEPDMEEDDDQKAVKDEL
Method: (§4) In this assay, a nonfluorescent substrate, dieosin glutathione disulfide (Di-E-GSSG), was reduced into a fluorescent product eosin-glutathione (E-GSH) by platelet surface PDI in the presence of 5 μM dithiothreitol (DTT).

platelet surface PDI = platelet surface PDI (Homo sapiens, UniProt P07237); test: Cell surface PDI reductase activity on intact human platelets (Di-E-GSSG assay)
platelet surface PDI, sequence (P07237 18-508): as above
Method: as §4

IC50 (washed human platelets [1]): 0.95 ± 0.1 µM
IC50 (washed human platelets [2]): 0.56 ± 0.17 µM
concentrations inhibiting ERp57 and ERp72 relative to PDI (ERp57 (PDIA3); ERp57 and ERp72 together, fold higher than required to inhibit PDI): 4 to 7 fold
IC50 (ERp57 (PDIA3); human recombinant, Di-E-GSSG): 6.98 ± 1.78 µM
IC50 (ERp72 (PDIA4)): 13.7 ± 0.66 µM
IC50 (glioma U87): > 20 µM
IC50 (lung cancer A549): 36.8 ± 1.93 µM
IC50 ([5]; RPMI-8226, 24 h, read-out: RPMI8226 IC50): 0.57 ± 0.01 µM
IC50 ([5]; RPMI-8226, 72 h, read-out: RPMI8226 IC50, 72 h): 0.061 µM
IC50 (breast cancer MDA-MB-231): 6.96 ± 0.47 µM
IC50 [6]: 1.87 ± 0.56 µM
IC50 (platelet surface PDI): 0.42 ± 0.07 µM
SMILES: CC(=O)OC1O[C@H](CSC2=CC(=O)c3cccc(O)c3C2=O)[C@@H](OC(C)=O)C(OC(C)=O)[C@H]1OC(C)=O (stereo in doubt) [Compound 18, 2-(1,2,3,4-Tetra-O-acetyl-6-deoxy-6-thio-α-D-glucopyranose)-8-hydroxynaphthalene-1,4-dione]
prevention of TCIPA [3]: significantly prevented TCIPA
tumor cell-induced increase in extracellular PDGF and ATP (platelet secretion) [4]: reduced
S.I. (EAhy926/RPMI8226), selectivity index ([5]; 24 h IC50 ratio): 12.8

Source: paper PMC10945480 (Journal of Medicinal Chemistry, 2024)
